In PMC2965131, “Histopathology and biochemistry analysis of the interaction between sunitinib and paracetamol in mice” (BMC Pharmacology, 2010):
“And” between values parts separate entries of the source, which are not always exact repeats. Identical values can stand only once.

Columns and labels:
liver tissue = assay: Histopathology assessment of liver (H&E, semi-quantitative grading); assay type: in vivo; conditions: mice
Protocol: (§1) Animals were fasted overnight prior to dose administration and randomly assigned to each of the four experimental groups. Mice in group A (n = 6) were administered saline; mice in group B mice (n = 6) were administered paracetamol only, 500 mg/kg IP. Group C was further subdivided into five different dose-groups of sunitinib only treatment: 25, 50, 80, 100 and 140 mg/kg administered PO (n = 6 for each dose group). Finally, mice in group D were co-administered paracetamol (500 mg/kg IP) and sunitinib at different doses: 25, 50, 80, 100 and 140 mg/kg PO (n = 6 each dose group). A feeding needle was used to ensure the full administration of the dose. Paracetamol was administered 15 minutes before sunitinib and animals were sacrificed 4 hours post sunitinib administration by cervical dislocation. Blood was obtained via cardiac puncture, allowed to clot, centrifuged (1500 rpm, 10 min, room temperature) and stored at -20°C until analysis. The liver and kidneys were excised from the mice and processed for histology assessment.
(§2) Processing of tissue samples for histology assessment followed established procedures. In brief, the tissue samples were rinsed with 0.9% saline solution, fixed in 10% formalin. Then the diagonal section of the liver, the transverse section of the kidneys and heart and the horizontal section of the spleen and the posterior section of the brain were obtained and processed (Leica TP1020, Japan) as follows: (1) 10% neutral buffered formalin for 1 h, twice; (2) 70% alcohol for 1.5 h; (3) 80% alcohol for 1.5 h; (4) 90% alcohol for 1.5 h; (5) absolute alcohol for 1.5 h, twice; (6) xylene for 1.5 h, twice; (7) in molten wax at 65°C for 2.5 h two changes. The processed tissues were embedded in paraffin and sectioned at 4 microns thickness, placed on frosted glass slides and dried on a 70°C hot plate for 30 minutes.
(§3) The tissues were stained using the hematoxylin and eosin (H&E) stains. The sections were dewaxed in two changes of xylene (3 min each), hydrated in two changes of 100% ethanol, followed by 90% ethanol and 70% ethanol, for 3 min each, rinsed with water (3 min) and stained. […]
(§4) Histopathology changes were observed and grouped based on two main criteria: vascular changes including vessel congestion, extravasation of red blood cells and hematoma formation; and necrotic changes including necrosis, fibrosis, nuclear changes, abscesses and cell regeneration. The morphological changes were assessed semi-quantitatively, blind by two independent assessors and graded as follows: No change - 0 (no distinguishable change, 0%); mild change - 1 (initiation of changes, up to 30%); moderate change - 2 (patent changes, 31-60%); severe change - 3 (wide spread changes, 61-100%). […]

Male ICR mice [1] = assay: Serum ALT and AST (liver function biomarkers); assay type: in vivo; conditions: for ALT serum concentration / AST serum concentration: mean ± SE
Protocol: as §1
(§5) Biochemistry analysis of serum ALT and AST was performed using standard assay kits (BiooScientific Corp., USA). The concentration in duplicate samples was measured at 340 nm using a microplate reader (Tecan Infinite F200). Similarly, blood urea nitrogen (BUN) and creatinine concentration were measured using specific assay kits (BioAssay Systems, USA) and measured at 490 nm (duplicate samples) in a Dynex OpsysMR microplate reader.
(§6) The effect of the drug combination on the biomarker levels compared to sunitinib alone treatment was assessed with the aid of SPSS 16.0 with the significance level set at p < 0.05. Independent-samples t-test (for samples normally distributed based on Shapiro-Wilk test) for pair-wise comparison was performed at each dose of the sunitinib alone and sunitinib and paracetamol combination groups. Samples that were not normally distributed were tested using the Mann Whitney test.

heart tissue = assay: Histopathology assessment of heart (H&E, semi-quantitative grading); assay type: in vivo; conditions: mice
Protocol: as §1, §2
(§7) The tissues were stained using the hematoxylin and eosin (H&E) stains. The sections were dewaxed in two changes of xylene (3 min each), hydrated in two changes of 100% ethanol, followed by 90% ethanol and 70% ethanol, for 3 min each, rinsed with water (3 min) and stained. The stained tissues were dehydrated with 70% ethanol followed by 90% ethanol, placed in two changes of 100% ethanol for 3 minutes each and cleaned with two changes of xylene (3 min each).
(§8) Histopathology changes were observed and grouped based on two main criteria: vascular changes including vessel congestion, extravasation of red blood cells and hematoma formation; and necrotic changes including necrosis, fibrosis, nuclear changes, abscesses and cell regeneration. The morphological changes were assessed semi-quantitatively, blind by two independent assessors and graded as follows: No change - 0 (no distinguishable change, 0%); mild change - 1 (initiation of changes, up to 30%); moderate change - 2 (patent changes, 31-60%); severe change - 3 (wide spread changes, 61-100%). Then, using SPSS 16.0, the Mann-Whitney test was used for pair-wise comparison between the sunitinib alone group and the combination group at each dose. The differences were considered significance if p < 0.05.

kidney tissue = assay: Histopathology assessment of kidney (H&E, semi-quantitative grading); assay type: in vivo; conditions: mice
Protocol: as §1, §2, §7, §8

Male ICR mice [2] = assay: Serum BUN and creatinine (renal function biomarkers); assay type: in vivo; conditions: for BUN serum concentration / Creatinine serum concentration: mean ± SE, n = 6
Protocol: as §1, §5, §6

spleen = assay: Histopathology assessment of spleen (H&E, semi-quantitative grading); assay type: in vivo; conditions: mice; for Spleen inflammatory changes: at any dose; for Spleen vascular changes: study doses of each treatment group
Protocol: as §1, §2, §3, §4

P450 = tested on: P450; set-up: method as in PMID 20020268; conditions: cited from earlier work
brain tissue = assay: Histopathology assessment of brain (H&E, semi-quantitative grading); assay type: in vivo; conditions: mice; for Brain histopathological changes: 4 h
Protocol: as §1
Processing of tissue samples for histology assessment followed established procedures. In brief, the tissue samples were rinsed with 0.9% saline solution, fixed in 10% formalin. […]
as §4

[3] = set-up: method as in earlier work; conditions: monkeys; up; cited from earlier work
mouse plasma proteins = tested on: mouse plasma proteins; set-up: method as in PMID 19169880; conditions: fraction unbound independent of concentration; cited from earlier work
[4] = set-up: method as in PMID 16520665; conditions: mice; cited from earlier work
plasma proteins = conditions: humans; cited from earlier work
[5] = humans; cited from earlier work
[6] = set-up: method as in PMID 19169880; conditions: mice, cited from earlier work
[7] = paracetamol 500 mg/kg IP alone, n = 6
[8] = paracetamol 500 mg/kg IP alone, n = 6, listed as paracetamol
[9] = increasing doses of sunitinib alone (25-140 mg/kg PO), 4 h
[10] = sunitinib 25 mg/kg PO alone, 4 h post dose, n = 6
[11] = sunitinib 50 mg/kg PO alone, 4 h post dose, n = 6
[12] = sunitinib 80 mg/kg PO alone, 4 h post dose, n = 6
[13] = sunitinib 100 mg/kg PO alone, 4 h post dose, n = 6
[14] = sunitinib 140 mg/kg PO alone, 4 h post dose, n = 6
[15] = sunitinib alone 25-140 mg/kg PO, 4 h post dose
[16] = sunitinib 25 mg/kg PO alone, 4 h post dose
[17] = sunitinib 50 mg/kg PO alone, 4 h post dose
[18] = sunitinib 80 mg/kg PO alone, 4 h post dose
[19] = sunitinib 100 mg/kg PO alone, 4 h post dose
[20] = sunitinib 140 mg/kg PO alone, 4 h post dose

CC(=O)Nc1ccc(O)cc1 [PCM, paracetamol]
Hepatic inflammatory changes (grade) (liver tissue; paracetamol 500 mg/kg IP alone): moderate (moderate change - 2 (patent changes, 31-60%))
Hepatic vascular changes (grade) (liver tissue; paracetamol 500 mg/kg IP alone): mild (mild change - 1 (initiation of changes, up to 30%))
Mean serum AST relative to vehicle control group (Male ICR mice [1]; paracetamol 500 mg/kg IP alone): 2 fold
ALT serum concentration (Male ICR mice [1]; [7]): 249.6 ± 222.7 U/L
AST serum concentration (Male ICR mice [1]; [7]): 377.1 ± 173.6 U/L
ALT serum concentration (Male ICR mice [1]; [8]): 249.60 ± 222.72 U/L
AST serum concentration (Male ICR mice [1]; [8]): 377.09 ± 173.55 U/L
Heart inflammatory changes (grade) (heart tissue; paracetamol 500 mg/kg IP alone): mild (mild change - 1 (initiation of changes, up to 30%))
Heart vascular congestion (grade) (heart tissue; paracetamol 500 mg/kg IP alone): mild (mild change - 1 (initiation of changes, up to 30%))
Renal inflammatory changes (grade) (kidney tissue; paracetamol 500 mg/kg IP alone): mild (mild change - 1 (initiation of changes, up to 30%))
Renal vascular changes (grade) (kidney tissue; paracetamol 500 mg/kg IP alone): mild (mild change - 1 (initiation of changes, up to 30%))
Increase of creatinine serum concentration vs baseline control (Male ICR mice [2]; paracetamol 500 mg/kg IP alone): 21%
BUN serum concentration (Male ICR mice [2]; paracetamol 500 mg/kg IP alone): 33.81 ± 5.68 mg/dL
Creatinine serum concentration (Male ICR mice [2]; paracetamol 500 mg/kg IP alone): 0.644 ± 0.110 mg/dL
Spleen inflammatory changes (spleen): no inflammatory changes
Spleen vascular changes (spleen): did not reveal any vascular changes
Amount undergoing P450 mediated oxidation to NAPQI (P450): ~ 5%
Brain vascular or inflammatory changes (brain tissue; paracetamol 500 mg/kg IP alone): no vascular or inflammatory changes

CCNCCNC(=O)c1c(C)[nH]c(/C=C2\C(=O)Nc3ccc(F)cc32)c1C [SU12662]
Brain penetration, percent of plasma concentrations [3]: 30%-40
Bound to mouse plasma proteins (mouse plasma proteins): 95%
Brain penetration, times the plasma concentration [4]: 4-7 times
Bound to plasma proteins (plasma proteins): 90%
Half-life [5]: 80 to 110 h

CCN(CC)CCNC(=O)c1c(C)[nH]c(/C=C2\C(=O)Nc3ccc(F)cc32)c1C [Sunitinib]
Brain penetration, percent of plasma concentrations [3]: 30%-40
Hepatic inflammatory changes (grade) (liver tissue; [9]): mild (mild change - 1 (initiation of changes, up to 30%))
Hepatic vascular changes (grade) (liver tissue; [9]): mild (mild change - 1 (initiation of changes, up to 30%))
ALT serum concentration (Male ICR mice [1]; [10]): 61.40 ± 26.57 U/L
AST serum concentration (Male ICR mice [1]; [10]): 204.6 ± 50.3 U/L
ALT serum concentration (Male ICR mice [1]; [11]): 36.75 ± 12.15 U/L
AST serum concentration (Male ICR mice [1]; [11]): 204.4 ± 49.4 U/L
ALT serum concentration (Male ICR mice [1]; [12]): 75.02 ± 20.37 U/L
AST serum concentration (Male ICR mice [1]; [12]): 290.3 ± 77.7 U/L
ALT serum concentration (Male ICR mice [1]; [13]): 47.61 ± 24.50 U/L
AST serum concentration (Male ICR mice [1]; [13]): 243.0 ± 66.4 U/L
ALT serum concentration (Male ICR mice [1]; [14]): 50.89 ± 18.90 U/L
AST serum concentration (Male ICR mice [1]; [14]): 239.5 ± 65.9 U/L
ALT serum concentration, range of group means (Male ICR mice [1]; [15]): 36.75-75.02 U/L
AST serum concentration, range of group means (Male ICR mice [1]; [15]): 204.4-290.3 U/L and 204.64 - 290.28 U/L
Bound to mouse plasma proteins (mouse plasma proteins): 91%
Cardiotoxicity (damage grade) (heart tissue; 25 - 80 mg/kg doses of sunitinib, reduction in relation to the paracetamol group): no damage to moderate damage
Heart inflammatory changes (heart tissue; sunitinib alone PO, 4 h): no inflammatory changes
Heart vascular congestion (grade) (heart tissue; sunitinib alone PO, 4 h): mild (mild change - 1 (initiation of changes, up to 30%))
Renal inflammatory changes (kidney tissue; sunitinib alone 140 mg/kg PO, 4 h): some tubular necrosis
Renal vascular changes (grade) (kidney tissue; sunitinib alone 25-140 mg/kg PO, 4 h): mild (mild change - 1 (initiation of changes, up to 30%))
Renal inflammatory changes (kidney tissue; sunitinib alone PO, doses below 140 mg/kg, 4 h): no signs of inflammatory changes
Brain penetration, times the plasma concentration [4]: 4-7 times
BUN serum concentration (Male ICR mice [2]; [16]): 20.08 ± 2.54 mg/dL
Creatinine serum concentration (Male ICR mice [2]; [16]): 0.535 ± 0.033 mg/dL
BUN serum concentration (Male ICR mice [2]; [17]): 17.5 ± 1.25 mg/dL
Creatinine serum concentration (Male ICR mice [2]; [17]): 0.594 ± 0.082 mg/dL
BUN serum concentration (Male ICR mice [2]; [18]): 19.71 ± 0.58 mg/dL
Creatinine serum concentration (Male ICR mice [2]; [18]): 0.528 ± 0.064 mg/dL
BUN serum concentration (Male ICR mice [2]; [19]): 17.62 ± 0.94 mg/dL
Creatinine serum concentration (Male ICR mice [2]; [19]): 0.533 ± 0.060 mg/dL
BUN serum concentration (Male ICR mice [2]; [20]): 26.68 ± 6.05 mg/dL
Creatinine serum concentration (Male ICR mice [2]; [20]): 0.559 ± 0.051 mg/dL
BUN concentrations, range of group means (Male ICR mice [2]; [15]): 17.50 to 26.68 mg/dL
Creatinine serum concentration, range of group means (Male ICR mice [2]; [15]): 0.528 to 0.594 mg/dL
Spleen inflammatory changes (spleen): no inflammatory changes
Spleen vascular changes (spleen): did not reveal any vascular changes
Bound to albumin (plasma proteins): 95%
Brain histopathological changes (brain tissue; sunitinib alone PO at high doses): toxicity decreased
Brain histopathological changes (brain tissue; sunitinib alone PO at low doses (p < 0.05 at 25 and 80 mg/kg)): Some congestion of vessels at the 'cortical junction' as well as evidence of liquefactive necrosis
Elimination half-life ([6]; after oral administration): 1.5 to 7.6 h
Time within which maximum concentration is achieved [6]: 0.5 to 6 h
Dose eliminated in the faeces [5]: 61%
Half-life [5]: 40 to 60 h
Recovered unchanged in urine [5]: around 16%
Time after dosing at which maximum plasma concentration is reached [5]: 6 to 12 h
